Measured values: US20080096909A1, “APOMORPHINE INHIBITORS OF AMYLOID-BETA (ABETA) FIBRIL FORMATION AND THEIR USE IN AMYLOIDOSIS BASED DISEASE” (priority 2001, published 2008)
Counter-ions that a name gives are not always drawn.

How the values were obtained:
Aβ 1-40 [1] = biological target: T1, Aβ 1-40 (Homo sapiens, UniProt P05067); assay: Thioflavin T (ThT) fluorescence assay for fibril formation; assay type: biochemical; design: Amyloid-β (Aβ 1-40) was purchased from California Peptides (Lot # SF104); purchased California Peptides Lot # SF104; conditions: for Thioflavin T signal after longer incubation: longer incubation at 37° C., some long fibrils formed; for Thioflavin T signal with sodium metabisulphite added: stock solutions containing 1% (v/v) sodium metabisulphite, 37° C., pH 7.4, 3 days
T1 sequence (P05067 672-711): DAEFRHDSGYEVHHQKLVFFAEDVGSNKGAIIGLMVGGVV
Protocol: Preparation of Stock Peptide Solutions for Fibrillization Studies. Stock solutions of the inhibitors were prepared by dissolving the compounds at a concentration of 5-7 mM in water or in 1-1.5% DMSO solutions (for compounds with reduced solubility). Amyloid-β (Aβ 1-40) was purchased from California Peptides (Lot # SF104). Aβ 1-40 stock solutions were prepared by dissolving purified and lyophilized peptide in cold double distilled water to yield stock solutions at a concentration of 2 mg/mL. The stock solutions were used within 10-30 minutes of dissolution. Samples for fibril formation assay were prepared by diluting the appropriate amount of Aβ stock with pH 7.4 Tris-HCl buffer (50 mM Tris, 150 mM NaCl) to afford a final peptide concentration of 100 μM. […] Analytical ultracentrifugation, and electron microscopy were periodically used to ensure that we start our experiments with a hydrodynamically defined Aβ monomer, and the absence of any preformed fibrils in solution.
Thioflavin T (ThT) Fluorescence Assay for Fibril Formation. Thioflavin T was purchased from Aldrich (70% purity) and was recrystallized from benzene/ethanol (1:1) to afford yellow crystals (36). Thioflavin T binding assays were performed by addition of 50 μL of 100 μM Aβ solutions, which were incubated at 37° C. in the absence and presence of inhibitors, to 450 μL solution of 10 μM Thioflavin T in phosphate buffer (10 mM phosphate, 100 mM KCl). The solutions were mixed and fluorescence measurements were recorded in Biosystems model spectrofluorimeter at 25° C. using a 1 cm path length quartz cell. An excitation slit width of 4 nm and an emission slit width of 8 nm were employed. The excitation wavelength was set to 450 nm and emission monitored from 460-630 nm. The relative fluorescence at 482 nm was plotted for each sample, and was used as a measure of the amount of fibrillar aggregates in solution.

Aβ 1-40 [2] = biological target: T1, Aβ 1-40; assay: Sedimentation velocity of Aβ quaternary structures in the presence of inhibitors; assay type: biochemical; design: Amyloid-β (Aβ 1-40) was purchased from California Peptides (Lot # SF104); purchased California Peptides Lot # SF104; conditions: for Amount of nonfibrillar assemblies (protofibrils) formed by Aβ alone relative to that obtained in the presence of compound: 20 hour incubation; for Sedimentation velocities, 20 h (average sedimentation coefficient): Aβ 1-40 100 μM + compound 100 μM, 37° C.
Protocol: Probing the Mechanism of Amyloid Fibril Formation Inhibition using Sedimentation Velocity Experiments. To probe the mechanism by which apomorphine and its structural analogues inhibit Aβ fibril formation, sedimentation velocity was used to determine the distribution and molecular size of quaternary structures of Aβ in the presence and absence of inhibitors. Aβ samples (100 μM) in a pH 7.4 buffer (50 mM Tris-HCl, 150 mM NaCl) were incubated at 37° C. for 1-10 days in the presence and absence of inhibitors, then transferred to 25° C. for 1-3 hours before the sedimentation experiments were carried out at 20° C. The sedimentation properties of Aβ 1-40 in the absence and presence of inhibitors were obtained from data collected on a temperature controlled Beckman XL-1 using 400-420 μL of peptide solutions and data were recorded at rotor speeds of 3,000-30,000 rpm in continuous mode with a step size of 0.005 cm. The sedimentation velocity absorbance profiles were then analyzed using the time derivative (dc/dt) analysis program, which was provided by J. Philo, to obtain the sedimentation coefficient distribution g(*s) for all the quaternary structures in solution as described previously (37, 38).
Fitting of the g(*s) profiles allows for the determination of the sedimentation coefficient (peak position, with a unit of Svedberg, 1 S=10^−13 s) and the diffusion coefficient (from the peak width, with a unit of Fick, 1 F=[…]). This method has the advantage of allowing for the calculation of the molecular weight of the sedimenting species using equation II since s and D can be obtained from the fitting analysis. [formula]
In the cases where the diffusion coefficient cannot be determined accurately, the molecular weight of a spherical protein can still be estimated by combining the Svedberg equation and Stokes equation for the frictional coefficient to obtain equation III which utilizes the estimated sedimentation coefficient: [formula]
Sedimentation velocity was also used to determine the amount of soluble Aβ and Aβ monomer in solution after sedimentation of Aβ aggregates. […] The percent of monomeric species in solution was calculated using equation IV at 50,000 rpm and after complete sedimentation of Aβ high MW oligomeric species. Sedimentation equilibrium studies of the unsedimented species were carried out to determine whether a monomer, dimer or a mixture was present in solution. % of unsedimented Aβ=1−(Absorbance(290 nm, 3000 rpm)−Absorbance(290 nm, 20,000-30,000 rpm))×100 (IV)

Aβ 1-40 [3] = biological target: T1, Aβ 1-40; assay: Electron microscopy of Aβ aggregates in the presence of inhibitor; assay type: biochemical; design: Amyloid-β (Aβ 1-40) was purchased from California Peptides (Lot # SF104); purchased California Peptides Lot # SF104; conditions: for Protofibril assembly into fibrils when compound is added to pre-incubated Aβ (EM and sedimentation velocity): Aβ pre-incubated 18-20 hr at 37° C., then three to nine days with compound
Protocol: Electron Microscopy. Electron microscopy was used to follow the changes in size and structural morphology of Aβ aggregates in the presence and absence of inhibitor at 37° C. as a function of time. EM samples were prepared by placing 5 μL of the Aβ solution on a carbon-coated grid and allowing the solution to stand for 2 min before removing excess solution. The grid was then washed once with distilled water and once with 1% uranyl acetate before staining the sample with fresh 1% uranyl acetate for another 2 min. The samples were then studied in a Phillips CM-100 electron microscope. The grids were thoroughly examined to get an overall statistical evaluation of the structures present in the sample. All electron micrographs were taken at 100 kV.

Aβ 1-40 [4] = biological target: T1, Aβ 1-40; assay: Aβ 1-40 fibril formation inhibition judged by ThT, sedimentation velocity and electron microscopy; conditions: Aβ 1-40 100 μM; for Effect on Aβ 1-40 fibril formation (ThT, sedimentation velocity, EM): pH 7.4, 37° C., 3 days
[5] = Aβ coincubated with D030, 11 days at 37° C.

SMILES | Thioflavin T signal after longer incubation (Aβ 1-40 [1]) | Thioflavin T signal with sodium metabisulphite added (Aβ 1-40 [1]) | Amount of nonfibrillar assemblies (protofibrils) formed by Aβ alone relative to that obtained in the presence of compound (Aβ 1-40 [2]) | Sedimentation velocities, 20 h (average sedimentation coefficient) (Aβ 1-40 [2]) | Protofibril assembly into fibrils when compound is added to pre-incubated Aβ (EM and sedimentation velocity) (Aβ 1-40 [3]) | Effect on Aβ 1-40 fibril formation (ThT, sedimentation velocity, EM) (Aβ 1-40 [4]) | further results
CCCN1CCc2cccc3c2[C@H]1Cc1ccc(O)c(O)c1-3.Cl [D027, R(−)-Propylnorapomorphine hydrochloride] | did not exhibit any changes | restoration of the ThT signal | ~30% | 33 S | no fibril formation | – | Inhibition of Aβ fibril formation by EM, aged or freshly prepared stock solutions (Aβ 1-40 [3]; three to four days at 37° C.): effective inhibition of Aβ fibril formation
Br.CCCN1CCc2cc(O)cc3c2[C@H]1Cc1ccc(O)c(O)c1-3 [D029, R(−)-2,10,11-Trihydroxy-N-propylnorapomorphine hydrobromide] | did not exhibit any changes | restoration of the ThT signal | ~30% | 35 S | exhibited similar behavior | – | –
Br.CN1CCc2cc(O)cc3c2[C@H]1Cc1ccc(O)c(O)c1-3 [D030, R(−)-2,10,11-Trihydroxyaporphine hydrobromide] | did not exhibit any changes | restoration of the ThT signal | ~30% | 33 S | least effective compound towards inhibiting protofibril assembly into fibrils | – | Concentration at which Aβ 1-40 fibril formation is inhibited (Aβ 1-40 [4]; incubation period of three days): 100 µM; Thioflavin T signal after 11 days (Aβ 1-40 [1]; [5]): did not show a ThT signal; Incubation period during which nonfibrillar assemblies remain the dominant species (EM and sedimentation velocity) (Aβ 1-40 [3]; 37° C., incubation extended to nine days): 1 to 3 days; Structures seen by EM after 9 days (Aβ 1-40 [3]; Aβ 100 μM, pH 7.4, 9 days at 37° C.): accumulation of some long fibrils in solution; Structures seen by EM after 11 days (Aβ 1-40 [3]; [5]): significant amounts of fibrils in solution
Br.Oc1ccc2c(c1O)-c1cccc3c1[C@@H](C2)NCC3 [D040, R(−)-Norapomorphine hydrobromide] | did not exhibit any changes | restoration of the ThT signal | ~30% | 31 S | exhibited similar behavior | – | –
CCCN1CCc2cccc3c2[C@H]1Cc1ccc2c(c1-3)OCO2.Cl [M121, R(−)-10,11-Methylenedioxy-N-n-propylnoraporphine hydrochloride] | – | – | – | – | – | showed no effect | –
COc1ccc2c(c1O)-c1cccc3c1[C@@H](C2)N(C)CC3.Cl [R(−)-apocodeine, R(−)-Apocodeine hydrochloride] | – | – | – | – | – | showed no effect | –
COc1ccc2c(c1O)-c1c3c(cc4c1[C@H](C2)N(C)CC4)OCO3 [bulbocapnine, Bulbocapnine hydrochloride] | – | – | – | – | – | showed no effect | –
COc1ccc2c(c1O)-c1c(OC)c(OC)cc3c1[C@H](C2)N(C)CC3.Cl [isocrydine, Isocrydine hydrochloride] | – | – | – | – | – | showed no effect | –
